Counter-ions that a name gives are not always drawn.

Common to all, as to experiment: MIC, agar dilution
Common to all, as to type: cell-based
A general note: Agar dilution tests growth on a series of plates holding different concentrations.

For one assay, the system named is Escherichia coli, 8294. The following applies: K-10 agar, 10^4 CFU, 37°C, 18 hours. As for the experimental part:
(§1) The following methodology is used to determine the minimum inhibitory concentration (hereinafter referred to as MIC) of the […] of this invention.
(§2) The test organisms are grown in approximately 15-20 ml of Antibiotic Assay broth (Difco) by inoculating (in tubes) the broth with a loopful of the organism from a BHI (Difco) agar slant. The inoculated tubes are incubated at 37°C for 18 to 20 hours. These cultures are assumed to contain 10^9 colony forming units (hereinafter CFU) per milliliter. The cultures are diluted 1:100 to give a final inoculum level of 10^4 CFU; dilutions are made with K-10 broth^*.
(§3) The compounds are dissolved in the appropriate diluent at a concentration of 1000 µg/ml. Twofold dilutions are made in K-10 broth resulting in a range from 1000 µg/ml to 0.5 µg/ml. 1.5 ml of each dilution is placed into individual square petri dishes to which 13.5 ml of K-10 agar^** is added. The final drug concentration in the agar ranges from 100 µg/ml to 0.05 µg/ml. Organism growth control plates containing agar only are prepared and inoculated before and after the test plates. The organisms are applied to the agar surface of each plate with the Denley Multipoint Inoculator (which delivers approximately 0.001 ml of each organism) resulting in a final inoculum level of 10^4 CFU on the agar surface.
(§4) The plates are incubated at 37 °C for 18 hours and the MIC's are determined. The MIC is the lowest concentration of compound inhibiting growth of the organism.
(§5) The tables that follow are tabulated results obtained when the B-lactams of this invention are tested against various organisms. The number following each organism refers to the number of the organism in the collection of E. R. Squibb & Sons,.Inc., Princeton, New Jersey. […] The symbol "N.T." means not tested.

Another assay relates to Escherichia coli, 10857. The following applies: K-10 agar, 10^4 CFU, 37°C, 18 hours. As for the experimental part: as §1, §2, §3, §4, §5
The test system of another assay is Escherichia coli, 10896. The following applies: K-10 agar, 10^4 CFU, 37°C, 18 hours. As for the experimental part:
as §1, §2, §3, §4, §5

In another assay the test system is Proteus rettgeri, 8479. The following applies: K-10 agar, 10^4 CFU, 37°C, 18 hours. As to the method: as §1, §2, §3, §4, §5
For assay [1], the system named is Staphylococcus aureus, 10165. The following applies: Staphylococcus aureus, 10165; K-10 agar, 10^4 CFU, 37°C, 18 hours. As for the experimental part:
as §1, §2, §3, §4, §5

The subject of assay [2] is Staphylococcus aureus, 1276. As to conditions: Staphylococcus aureus, 1276; K-10 agar, 10^4 CFU, 37°C, 18 hours. As to the method: as §1, §2, §3, §4, §5
The test system of assay [3] is Staphylococcus aureus, 2400. The following applies: Staphylococcus aureus, 2400; K-10 agar, 10^4 CFU, 37°C, 18 hours. As for the experimental part:
as §1, §2, §3, §4, §5

The subject of assay [4] is Streptococcus faecalis, 9011. As to conditions: Streptococcus faecalis, 9011; K-10 agar, 10^4 CFU, 37°C, 18 hours. As to the method: as §1, §2, §3, §4, §5
The test system of assay [5] is Staphylococcus aureus, 2399. The following applies: Staphylococcus aureus, 2399; K-10 agar, 10^4 CFU, 37°C, 18 hours. As to the method:
as §1, §2, §3, §4, §5

Assay [6] deals with Pseudomonas aeruginosa, 9545. The following applies: K-10 agar, 10^4 CFU, 37°C, 18 hours. As for the experimental part:
as §1, §2, §3, §4, §5

Assay [7] deals with Pseudomonas aeruginosa, 8329. As to conditions: K-10 agar, 10^4 CFU, 37°C, 18 hours. As for the experimental part: as §1, §2, §3, §4, §5
The subject of assay [8] is Serratia marcescens, 9783. The following applies: K-10 agar, 10^4 CFU, 37°C, 18 hours. As to the method:
as §1, §2, §3, §4, §5

The test system of assay [9] is Acinetobacter calcoaceticus, 8333. As to conditions: K-10 agar, 10^4 CFU, 37°C, 18 hours. As for the experimental part: as §1, §2, §3, §4, §5
The test system of a further assay is Proteus vulgaris, 9416. The following applies: K-10 agar, 10^4 CFU, 37°C, 18 hours. As to the method:
as §1, §2, §3, §4, §5

Assay [10] deals with Klebsiella pneumoniae, 9527. The following applies: K-10 agar, 10^4 CFU, 37°C, 18 hours. As for the experimental part:
as §1, §2, §3, §4, §5

In assay [11] the test system is Citrobacter freundii, 9518. As to conditions: K-10 agar, 10^4 CFU, 37°C, 18 hours. As to the method:
as §1, §2, §3, §4, §5

The test system of assay [12] is Klebsiella aerogenes, 10440. As to conditions: K-10 agar, 10^4 CFU, 37°C, 18 hours. As to the method:
as §1, §2, §3, §4, §5

Assay [13] concerns Enterobacter aerogenes, 10078. As to conditions: Enterobacter aerogenes, 10078; K-10 agar, 10^4 CFU, 37°C, 18 hours. As to the method: as §1, §2, §3, §4, §5
The next assay has as its system Shigella sonnei, 8449. The following applies: K-10 agar, 10^4 CFU, 37°C, 18 hours. As for the experimental part: as §1, §2, §3, §4, §5
The next assay deals with Salmonella typhosa, 1195. As to conditions: K-10 agar, 10^4 CFU, 37°C, 18 hours. As for the experimental part:
as §1, §2, §3, §4, §5

A further assay concerns Proteus mirabilis, 3855. The following applies: K-10 agar, 10^4 CFU, 37°C, 18 hours. As to the method:
as §1, §2, §3, §4, §5

As to `C[C@@H]1[C@H](NC(=O)/C(=N\OC(C)(C)C(=O)O)c2csc(N)n2)C(=O)N1S(=O)(=O)O` [Example 23, [3S-(3α(Z),4a]]-3-[[(2-Amino-4-thiazolyl) [(1-carboxy-1-methylethoxy)imino)acetyl]amino]-4-methyl-2-oxo-l-azetidinesulfonic acid, potassium salt (1:2)], the M.I.C. in the assay with Escherichia coli, 8294 was 0.2 µg/mL; in the assay on Escherichia coli, 10857, 0.1 µg/mL; with Escherichia coli, 10896 it was 0.2 µg/mL; in the assay on Proteus rettgeri, 8479, 0.05 µg/mL; in assay [1] it was “- (A dash (-) in the tables means that the compound tested did not show activity against the particular organism at 100 µg/ml)”; in [2], “- (A dash (-) in the tables means that the compound tested did not show activity against the particular organism at 100 µg/ml)”. Further, the M.I.C. entry in [3] was “- (A dash (-) in the tables means that the compound tested did not show activity against the particular organism at 100 µg/ml)”; in assay [4] it was “- (A dash (-) in the tables means that the compound tested did not show activity against the particular organism at 100 µg/ml)”; in assay [5], “- (A dash (-) in the tables means that the compound tested did not show activity against the particular organism at 100 µg/ml)”; in [6], 0.4 µg/mL; in assay [7], 1.6 µg/mL; in assay [8], 0.2 µg/mL. Also, the M.I.C. in [9] was 25 µg/mL; in the assay with Proteus vulgaris, 9416, 0.05 µg/mL; in assay [10] it was 0.05 µg/mL; in [11], 0.4 µg/mL; in assay [12], 0.4 µg/mL; in assay [13] it was 0.8 µg/mL. In addition, the M.I.C. with Shigella sonnei, 8449 came to 0.1 µg/mL; with Salmonella typhosa, 1195, 0.05 µg/mL; in the assay with Proteus mirabilis, 3855, 0.05 µg/mL.

The values are drawn from patent EP0187355A1, “Process for preparing beta-lactam antibiotics” (E.R. Squibb & Sons, Inc., priority 1981, dated 1982).
